Reference: the NIST ThermoML archive (doi:10.1016/j.jct.2018.11.014)

Assay: molar heat capacity at constant pressure
Settings: 101.33 kPa, Crystal, Vacuum adiabatic calorimetry

O=C(CO)[C@H](O)[C@H](O)[C@H](O)CO [D-psicose]
Settings | molar heat capacity at constant pressure [J/K/mol]
10 K | 1.06
13.99 K | 3.375
14.02 K | 3.439
14.28 K | 3.64
14.4 K | 3.754
14.66 K | 3.847
14.86 K | 4.085
15.13 K | 4.198
15.37 K | 4.483
15.64 K | 4.671
15.88 K | 4.798
16.15 K | 5.026
16.39 K | 5.238
16.66 K | 5.478
16.87 K | 5.647
17.18 K | 5.894
17.36 K | 6.237
17.71 K | 6.348
17.89 K | 6.508
18.23 K | 6.844
18.41 K | 6.995
18.75 K | 7.275
18.93 K | 7.521
19.28 K | 7.752
19.46 K | 7.915
19.8 K | 8.239
19.98 K | 8.416
20 K | 8.42
20.3 K | 8.666
20.5 K | 8.908
20.83 K | 9.202
21.03 K | 9.391
21.37 K | 9.657
21.57 K | 9.861
21.92 K | 10.24
22.13 K | 10.42
22.49 K | 10.72
22.7 K | 10.96
23.05 K | 11.3
23.26 K | 11.48
23.62 K | 11.82
23.81 K | 12.26
24.15 K | 12.34
24.36 K | 12.54
24.65 K | 12.88
24.9 K | 13.06
25.16 K | 13.34
25.45 K | 13.61
25.69 K | 13.83
26.02 K | 14.15
26.24 K | 14.43
26.59 K | 14.76
26.81 K | 14.99
27.15 K | 15.34
27.39 K | 15.49
27.7 K | 15.88
27.98 K | 16.13
28.26 K | 16.42
28.56 K | 16.7
28.82 K | 16.95
29.15 K | 17.31
29.37 K | 17.41
29.75 K | 17.78
29.95 K | 18.06
30 K | 18.07
30.36 K | 18.41
30.55 K | 18.62
31.01 K | 19.02
31.16 K | 19.16
31.66 K | 19.69
31.8 K | 19.88
32.32 K | 20.31
32.46 K | 20.43
32.98 K | 20.91
33.13 K | 21.09
33.66 K | 21.61
33.8 K | 21.78
34.35 K | 22.21
34.48 K | 22.3
35.05 K | 22.92
35.17 K | 22.97
35.76 K | 23.59
35.88 K | 23.74
36.48 K | 24.27
36.63 K | 24.38
37.21 K | 24.86
37.36 K | 25.09
37.96 K | 25.64
38.08 K | 25.78
38.67 K | 26.21
38.81 K | 26.52
39.35 K | 26.89
39.58 K | 27.16
40 K | 27.53
40.05 K | 27.63
40.43 K | 27.95
40.77 K | 28.11
41.28 K | 28.77
41.49 K | 28.95
42.02 K | 29.4
42.23 K | 29.59
42.78 K | 30.13
42.98 K | 30.25
43.57 K | 30.79
43.74 K | 30.97
44.37 K | 31.59
44.52 K | 31.66
45.16 K | 32.25
45.3 K | 32.35
45.96 K | 33.05
46.09 K | 33.04
46.74 K | 33.72
46.88 K | 33.8
47.53 K | 34.42
47.68 K | 34.54
48.33 K | 35.15
48.49 K | 35.21
49.13 K | 35.86
49.31 K | 35.98
49.94 K | 36.62
50 K | 36.64
50.14 K | 36.77
50.75 K | 37.33
51.57 K | 38.05
52.37 K | 38.74
53.17 K | 39.44
53.96 K | 40.14
54.75 K | 40.85
55.53 K | 41.56
56.33 K | 42.23
57.14 K | 42.92
57.94 K | 43.52
58.76 K | 44.3
59.58 K | 45.03
60 K | 45.42
60.41 K | 45.79
61.24 K | 46.57
62.08 K | 47.21
62.92 K | 47.95
63.78 K | 48.66
64.64 K | 49.47
65.5 K | 50.22
66.42 K | 50.91
67.38 K | 51.71
68.32 K | 52.51
69.24 K | 53.27
70 K | 53.92
70.15 K | 54.04
71.1 K | 54.88
72.09 K | 55.67
73.08 K | 56.51
74.09 K | 57.32
75.11 K | 58.14
76.17 K | 59.03
77.3 K | 59.96
78.43 K | 60.89
79.19 K | 61.65
79.55 K | 61.8
80 K | 62.17
80.16 K | 62.27
80.67 K | 62.64
81.12 K | 63.07
81.85 K | 63.65
82.06 K | 63.87
82.72 K | 64.37
83.04 K | 64.72
83.07 K | 64.59
83.74 K | 65.19
84.05 K | 65.44
84.3 K | 65.6
84.74 K | 66.03
85.05 K | 66.26
85.58 K | 66.72
85.73 K | 66.8
86.07 K | 67.06
86.71 K | 67.55
86.87 K | 67.6
87.09 K | 67.95
87.73 K | 68.44
88.15 K | 68.72
88.2 K | 68.72
88.8 K | 69.22
89.24 K | 69.63
89.57 K | 69.81
89.88 K | 70.11
90 K | 70.2
90.32 K | 70.45
90.92 K | 70.89
90.95 K | 70.98
91.39 K | 71.33
92.01 K | 71.78
92.24 K | 71.95
92.44 K | 72.09
93.1 K | 72.72
93.53 K | 73.06
93.55 K | 72.93
94.22 K | 73.58
94.64 K | 73.83
94.9 K | 74.01
95.33 K | 74.47
95.76 K | 74.71
96.28 K | 75.12
96.44 K | 75.31
96.92 K | 75.66
97.56 K | 76.24
97.64 K | 76.12
98.12 K | 76.55
98.71 K | 77.11
98.99 K | 77.22
99.36 K | 77.58
99.92 K | 78.04
100 K | 78.04
100.32 K | 78.22
100.64 K | 78.58
101.13 K | 78.97
101.68 K | 79.27
101.91 K | 79.49
102.33 K | 79.86
103.08 K | 80.34
103.16 K | 80.4
103.51 K | 80.73
104.4 K | 81.45
104.47 K | 81.42
104.73 K | 81.75
105.67 K | 82.37
105.83 K | 82.47
105.97 K | 82.66
106.98 K | 83.32
107.19 K | 83.5
107.21 K | 83.56
108.27 K | 84.28
108.43 K | 84.6
108.57 K | 84.51
109.54 K | 85.27
109.64 K | 85.41
109.99 K | 85.61
110 K | 85.65
110.81 K | 86.25
110.88 K | 86.33
111.39 K | 86.67
112.1 K | 87.19
112.15 K | 87.32
112.78 K | 87.7
113.41 K | 88.29
113.43 K | 88.23
114.16 K | 88.71
114.66 K | 89.15
114.74 K | 89.18
115.57 K | 89.78
115.89 K | 90.08
116.04 K | 90.2
117.01 K | 90.83
117.16 K | 91.03
117.33 K | 91.11
118.44 K | 91.9
118.47 K | 92.11
118.65 K | 92.13
119.8 K | 92.98
119.86 K | 92.95
120 K | 93.09
120.39 K | 93.31
121.11 K | 93.95
121.28 K | 94.01
121.69 K | 94.22
122.42 K | 94.92
122.77 K | 95.15
